The text below walks through data of BindingDB's records for doi:10.1016/j.bmcl.2006.01.017 (Celera, 2006).

Structures are written as SMILES.

In one assay the target is T1, Serine protease 1 (Bos taurus, UniProt P00760).
T1 sequence (P00760 whole entry): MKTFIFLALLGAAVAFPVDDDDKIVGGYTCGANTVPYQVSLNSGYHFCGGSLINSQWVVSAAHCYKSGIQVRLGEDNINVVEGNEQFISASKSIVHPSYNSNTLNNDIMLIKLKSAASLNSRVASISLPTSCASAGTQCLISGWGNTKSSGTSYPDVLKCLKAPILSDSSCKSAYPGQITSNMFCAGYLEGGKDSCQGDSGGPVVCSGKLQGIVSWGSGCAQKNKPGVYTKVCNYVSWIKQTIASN
The assay can be described thus: Enzyme Inhibition Assay. The following applies: pH 7.4; 22 °C. How it is done: (§1) The apparent Ki values were then calculated according to the Cheng-Prusoff equation: Ki = IC50/1 + [S]/Km.

The next assay concerns the target T2, Coagulation factor VII (Homo sapiens, UniProt P08709).
T2 sequence (P08709 whole entry): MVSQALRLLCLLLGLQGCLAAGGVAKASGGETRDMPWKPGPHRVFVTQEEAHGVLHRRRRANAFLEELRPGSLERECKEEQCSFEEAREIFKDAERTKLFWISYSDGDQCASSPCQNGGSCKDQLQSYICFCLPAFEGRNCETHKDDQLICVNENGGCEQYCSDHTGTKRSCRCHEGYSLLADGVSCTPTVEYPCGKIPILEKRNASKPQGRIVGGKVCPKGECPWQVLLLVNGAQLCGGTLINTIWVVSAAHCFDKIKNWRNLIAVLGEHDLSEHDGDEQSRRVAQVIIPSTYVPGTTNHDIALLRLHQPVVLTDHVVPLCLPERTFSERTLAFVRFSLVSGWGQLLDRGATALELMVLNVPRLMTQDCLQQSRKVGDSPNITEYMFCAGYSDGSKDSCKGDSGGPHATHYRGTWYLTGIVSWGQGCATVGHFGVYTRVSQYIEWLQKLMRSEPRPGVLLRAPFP
The experiment in a line: Enzyme Inhibition Assay. The note with it: pH 7.4; 22 °C. The protocol:
as §1

A word on the Ki: it is the dissociation constant of the complex between target and ligand, obtained from inhibition or displacement. A high value points to a looser hold on the target. Turning to `Nc1ccc2[nH]c(-c3cc(CC(=O)O)cc(-c4cccc([N+](=O)[O-])c4)c3O)nc2n1` [2-(3-{5-amino-1H-imidazo[4,5-b]pyridin-2-yl}-4-hydroxy-5-(3-nitrophenyl)phenyl)acetic acid], the Ki on Serine protease 1 is more than 150 µM. On Coagulation factor VII, `CS(=O)(=O)c1cccc(-c2cc(CC(=O)O)cc(-c3cc4nc(N)ccc4[nH]3)c2O)c1` [2-(3-{5-amino-1H-pyrrolo[3,2-b]pyridin-2-yl}-4-hydroxy-5-(3-methanesulfonylphenyl)phenyl)acetic acid] came in with a Ki of 7.4 µM. Same read-out and setting: for `CN(C)CCNC(=O)NCc1cccc(-c2cc(CC(=O)O)cc(-c3cc4nc(N)ccc4[nH]3)c2O)c1` [2-(3-{5-amino-1H-pyrrolo[3,2-b]pyridin-2-yl}-5-{3-[({[2-(dimethylamino)ethyl]carbamoyl}amino)methyl]phenyl}-4-hydroxyphenyl)acetic acid] the value was 1.4 µM.

On to `O=C(O)Cc1cc(-c2cccc([N+](=O)[O-])c2)c(O)c(-c2nc3ccccc3[nH]2)c1` [2-[3-(1H-1,3-benzodiazol-2-yl)-4-hydroxy-5-(3-nitrophenyl)phenyl]acetic acid], for which the inhibition constant Ki on Serine protease 1 is more than 150 µM. Compound `NC(=O)Nc1cccc(-c2cc(CC(=O)O)cc(-c3cc4nc(N)ccc4[nH]3)c2O)c1` [2-(3-{5-amino-1H-pyrrolo[3,2-b]pyridin-2-yl}-5-[3-(carbamoylamino)phenyl]-4-hydroxyphenyl)acetic acid] displayed a Ki on Coagulation factor VII of 12 µM.
